The values below are quoted from earlier work in US20110144044A1, “Composition and method for increasing post workout recovery” (priority 2009, published 2011).

One data set has as its system rats. To be noted: CNS administration.
The mark [1] stands for this setting: after caffeine ingestion 6 mg/kg, intense exercise.

As for `CCNC(=O)[C@H]1O[C@@H](n2cnc3c(N)ncnc32)[C@H](O)[C@@H]1O` [NECA, 5′-N-ethylcarboxamidoadenosine], in the data set with rats, the “run time to fatigue” value is listed as “significantly reduced run time to fatigue”.

On to `Cn1c(=O)c2c(ncn2C)n(C)c1=O` [caffeine], for which, in the data set on subjects (setting [1]), the muscle lactate concentration entry is “increased”, the net muscle glycogenolysis result is reported as “unaffected” and the plasma epinephrine concentration entry was “increased”. In the data set on subjects (caffeine 6 mg/kg ingested vs placebo, cycling to voluntary exhaustion), the endurance result is “significant increase in endurance”. Moreover, the “increase in treadmill run time to fatigue” value in the data set on rats is “approximately 60%”.
